From ChEMBL document CHEMBL2202990, “(R)- and (S)-4-Amino-3-(trimethylsilyl)methylbutanoic acids ameliorate neuropathic pain without central nervous system-related side effects” (Bioorg Med Chem Lett, 2012) come the findings set out here.

Calls of active or inactive are those of the source.

Data set [1] has as its system Rattus norvegicus. Put plainly: Toxicity against rat assessed as somnolence at 30 mg/kg. In kind it is organism-based. Details: dose 30 mg/kg. The note with it: in vivo.
The test system of data set [2] is Mus musculus. Put plainly: Toxicity against mouse assessed as protection against pentetrazole-induced death at 45 mg/kg. The format is organism-based. Details: dose 45 mg/kg. The note with it: in vivo.
Data set [3] relates to Mus musculus. Nature of the data set: Toxicity against mouse assessed as protection against maximal-electroshock-induced tonic seizure at 45 mg/kg. The format is organism-based. Details: dose 45 mg/kg. The note with it: in vivo.
Data set [4] concerns Mus musculus. Nature of the data set: Toxicity against mouse assessed as protection against maximal-electroshock-induced tonic seizure at 15 mg/kg. The format is organism-based. Details: dose 15 mg/kg. The note with it: in vivo.
Data set [5] concerns Rattus norvegicus. Put plainly: Toxicity against CD rat SNL pain model assessed as hypalgesic activity on the contralateral side of paw at 20 mg/kg, po at 90 mins relative to control. In kind it is organism-based. Details: dose 20 mg/kg, route oral. The note with it: in vivo, 1.5 h.
Data set [6] has as its system Rattus norvegicus. Put plainly: Antiallodynic activity in CD rat SNL pain model assessed as increase in paw withdrawal threshold at 20 mg/kg, po measured at 90 mins. In kind it is functional, organism-based. Details: dose 20 mg/kg.
Data set [7] deals with Rattus norvegicus. Nature of the data set: Antiallodynic activity in CD rat SNL pain model assessed as increase in paw withdrawal threshold at 20 mg/kg, po measured from 30 to 180 mins. In kind it is functional, organism-based. Details: dose 20 mg/kg.
The test system of data set [8] is Rattus norvegicus. Put plainly: Antiallodynic activity in CD rat SNL pain model assessed as increase in paw withdrawal threshold at 60 mg/kg, po measured up to 180 mins. Details: dose 60 mg/kg. The format is functional, organism-based.
For data set [9], the system named is Mus musculus. Nature of the data set: Toxicity against mouse assessed as protection against pentetrazole-induced death at 5 mg/kg. In kind it is organism-based. Details: dose 5 mg/kg. The note with it: in vivo.
Data set [10] concerns Mus musculus. Nature of the data set: Toxicity against mouse assessed as protection against pentetrazole-induced death at 15 mg/kg. The note with it: in vivo. Details: dose 15 mg/kg. The format is organism-based.
The subject of data set [11] is Mus musculus. Put plainly: Toxicity against mouse assessed as protection against maximal-electroshock-induced tonic seizure at 5 mg/kg. Details: dose 5 mg/kg. The format is organism-based. The note with it: in vivo.
The test system of data set [12] is Rattus norvegicus. Nature of the data set: Toxicity against CD rat SNL pain model assessed as hypalgesic activity on the contralateral side of paw at 40 mg/kg, po at 90 mins relative to control. Details: dose 40 mg/kg, route oral. The note with it: in vivo, 1.5 h. The format is organism-based.
In data set [13] the test system is Rattus norvegicus. Nature of the data set: Antiallodynic activity in CD rat SNL pain model assessed as increase in paw withdrawal threshold at 40 mg/kg, po measured from 30 to 180 mins. In kind it is functional, organism-based. Details: dose 40 mg/kg.
The test system of data set [14] is Rattus norvegicus. Nature of the data set: Antiallodynic activity in CD rat SNL pain model assessed as increase in paw withdrawal threshold at 20 mg/kg, po measured after 90 mins. Details: dose 20 mg/kg. The format is functional, organism-based.
In data set [15] the test system is Rattus norvegicus. Nature of the data set: Antiallodynic activity in CD rat SNL pain model assessed as increase in paw withdrawal threshold at 20 mg/kg, po measured from 30 to 60 mins. The format is functional, organism-based. Details: dose 20 mg/kg.

`CC(C)C[C@H](CN)CC(=O)O` [PREGABALIN]: the Activity result in the data set with Rattus norvegicus [1], in the data set on Mus musculus [2], in the data set with Mus musculus [3], with Mus musculus [4] and in the data set on Rattus norvegicus [5] was “Toxic” in each case. For the same compound, the outcome in the data set on Rattus norvegicus [6] and in the data set on Rattus norvegicus [7] was Active.

As for `C[Si](C)(C)CC(CN)CC(=O)O` (racemic), in the data set with Rattus norvegicus [8], the outcome was Active.

For the compound `C[Si](C)(C)C[C@H](CN)CC(=O)O`, the Activity entry in the data set on Mus musculus [9], in the data set with Mus musculus [10], in the data set on Mus musculus [11], in the data set on Mus musculus [2], in the data set on Mus musculus [3] and in the data set on Mus musculus [4] was “Non-toxic” throughout. For the same compound, the Activity result with Rattus norvegicus [12] and in the data set on Rattus norvegicus [5] was “Non-toxic” throughout. Moreover, in the data set with Rattus norvegicus [13], the outcome was Active. Besides, the result in the data set on Rattus norvegicus [7] was inactive.

On to `C[Si](C)(C)C[C@@H](CN)CC(=O)O`, for which the Activity entry with Mus musculus [9], in the data set with Mus musculus [10], with Mus musculus [11], in the data set on Mus musculus [2], with Mus musculus [3] and in the data set with Mus musculus [4] was “Non-toxic” throughout. Moreover, the Activity result with Rattus norvegicus [12] and in the data set with Rattus norvegicus [5] was “Non-toxic” each time. Also, the outcome in the data set on Rattus norvegicus [14] was inactive. In addition, in the data set on Rattus norvegicus [15], the outcome was Active.
